Earlier results, collected in paper PMC8711562 (Drug Design, Development and Therapy, 2021).

Test system: gastric pH
Settings: beagles

COc1ccc2[nH]c([S+]([O-])Cc3ncc(C)c(OC)c3C)nc2c1 (stereo not shown) [Omeprazole]
gastric pH elevated to: 6
